# Data taken from PubChem BioAssay (NCI).
#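 Grown in 96-well plates, cells were treated for 48 hours with each compound at five concentrations. Insufficient inhibition: endpoint recorded as highest concentration tested. GI50: concentration for 50% inhibition of growth. TGI marks complete inhibition of growth.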
# Columns and labels:
# Assay in all cases: DTP human tumour cell line panel, 48 h
# SNB-19 CNS = tested on: SNB-19 CNS
# RXF 393 renal = tested on: RXF 393 renal
# SNB-75 CNS = tested on: SNB-75 CNS
# A549 NSCLC = tested on: A549 NSCLC
# SF-268 CNS = tested on: SF-268 CNS
# HL-60(TB) leukemia = tested on: HL-60(TB) leukemia
# U251 CNS = tested on: U251 CNS
# HCT-116 colon = tested on: HCT-116 colon
# HOP-92 NSCLC = tested on: HOP-92 NSCLC
# SF-539 CNS = tested on: SF-539 CNS
# BT-549 breast = tested on: BT-549 breast
# UACC-62 melanoma = tested on: UACC-62 melanoma
# RPMI-8226 leukemia = tested on: RPMI-8226 leukemia
# HCC-2998 colon = tested on: HCC-2998 colon
# NCI/ADR-RES ovarian = tested on: NCI/ADR-RES ovarian
# HOP-62 NSCLC = tested on: HOP-62 NSCLC
# MDA-MB-435 = tested on: MDA-MB-435
# UO-31 renal = tested on: UO-31 renal
# M14 melanoma = tested on: M14 melanoma
# ACHN renal = tested on: ACHN renal
# NCI-H460 lung = tested on: NCI-H460 lung
# SK-OV-3 ovarian = tested on: SK-OV-3 ovarian
# OVCAR-3 ovarian = tested on: OVCAR-3 ovarian
# NCI-H23 lung = tested on: NCI-H23 lung
# MDA-MB-231 breast = tested on: MDA-MB-231 breast
# SK-MEL-5 melanoma = tested on: SK-MEL-5 melanoma
# CAKI-1 renal = tested on: CAKI-1 renal
# SK-MEL-28 melanoma = tested on: SK-MEL-28 melanoma
# OVCAR-8 ovarian = tested on: OVCAR-8 ovarian
# PC-3 prostate = tested on: PC-3 prostate
# SF-295 CNS = tested on: SF-295 CNS
# SR leukemia = tested on: SR leukemia
# A498 renal = tested on: A498 renal
# KM12 colon = tested on: KM12 colon
# OVCAR-5 ovarian = tested on: OVCAR-5 ovarian
# SW-620 colon = tested on: SW-620 colon
# HT29 colon = tested on: HT29 colon
# UACC-257 melanoma = tested on: UACC-257 melanoma
# NCI-H522 lung = tested on: NCI-H522 lung
# T-47D breast = tested on: T-47D breast
# MCF7 breast = tested on: MCF7 breast
# OVCAR-4 ovarian = tested on: OVCAR-4 ovarian
# TK-10 renal = tested on: TK-10 renal
# MALME-3M melanoma = tested on: MALME-3M melanoma
# HS 578T breast = tested on: HS 578T breast
# IGROV1 ovarian = tested on: IGROV1 ovarian
# NCI-H226 lung = tested on: NCI-H226 lung
# COLO 205 colon = tested on: COLO 205 colon
# SN12C renal = tested on: SN12C renal
# HCT-15 colon = tested on: HCT-15 colon
# DU-145 prostate = tested on: DU-145 prostate
# EKVX NSCLC = tested on: EKVX NSCLC
# 786-0 renal = tested on: 786-0 renal
# SK-MEL-2 melanoma = tested on: SK-MEL-2 melanoma
# LOX IMVI melanoma = tested on: LOX IMVI melanoma
# K-562 leukemia = tested on: K-562 leukemia
# MOLT-4 leukemia = tested on: MOLT-4 leukemia
# CCRF-CEM leukemia = tested on: CCRF-CEM leukemia
smiles,measurement,setting,value
CCCCCCCC(=O)SCC/C=C/[C@@H]1CC(=O)NCc2cccc(n2)CN(Cc2ccc3ccccc3c2)CC(=O)N[C@@H](C(C)C)C(=O)O1,GI50,SNB-19 CNS,> 100 µM
same,TGI,SNB-19 CNS,> 100 µM
same,GI50,RXF 393 renal,42.2 µM
same,TGI,RXF 393 renal,> 100 µM
same,GI50,SNB-75 CNS,27.9 µM
same,TGI,SNB-75 CNS,> 100 µM
same,GI50,A549 NSCLC,> 100 µM
same,TGI,A549 NSCLC,> 100 µM
same,GI50,SF-268 CNS,93.8 µM
same,TGI,SF-268 CNS,> 100 µM
same,GI50,HL-60(TB) leukemia,48 µM
same,TGI,HL-60(TB) leukemia,> 100 µM
same,GI50,U251 CNS,98.2 µM
same,TGI,U251 CNS,> 100 µM
same,GI50,HCT-116 colon,26.5 µM
same,TGI,HCT-116 colon,> 100 µM
same,GI50,HOP-92 NSCLC,56.2 µM
same,TGI,HOP-92 NSCLC,> 100 µM
same,GI50,SF-539 CNS,> 100 µM
same,TGI,SF-539 CNS,> 100 µM
same,GI50,BT-549 breast,> 100 µM
same,TGI,BT-549 breast,> 100 µM
same,GI50,UACC-62 melanoma,51.6 µM
same,TGI,UACC-62 melanoma,> 100 µM
same,GI50,RPMI-8226 leukemia,> 100 µM
same,TGI,RPMI-8226 leukemia,> 100 µM
same,GI50,HCC-2998 colon,> 100 µM
same,TGI,HCC-2998 colon,> 100 µM
same,GI50,NCI/ADR-RES ovarian,46.4 µM
same,TGI,NCI/ADR-RES ovarian,> 100 µM
same,GI50,HOP-62 NSCLC,39.2 µM
same,TGI,HOP-62 NSCLC,> 100 µM
same,GI50,MDA-MB-435,39.7 µM
same,TGI,MDA-MB-435,> 100 µM
same,GI50,UO-31 renal,50 µM
same,TGI,UO-31 renal,> 100 µM
same,GI50,M14 melanoma,44.3 µM
same,TGI,M14 melanoma,> 100 µM
same,GI50,ACHN renal,45.3 µM
same,TGI,ACHN renal,> 100 µM
same,GI50,NCI-H460 lung,43.9 µM
same,TGI,NCI-H460 lung,> 100 µM
same,GI50,SK-OV-3 ovarian,40 µM
same,TGI,SK-OV-3 ovarian,> 100 µM
same,GI50,OVCAR-3 ovarian,74.3 µM
same,TGI,OVCAR-3 ovarian,> 100 µM
same,GI50,NCI-H23 lung,> 100 µM
same,TGI,NCI-H23 lung,> 100 µM
same,GI50,MDA-MB-231 breast,41.4 µM
same,TGI,MDA-MB-231 breast,> 100 µM
same,GI50,SK-MEL-5 melanoma,36.2 µM
same,TGI,SK-MEL-5 melanoma,> 100 µM
same,GI50,CAKI-1 renal,> 100 µM
same,TGI,CAKI-1 renal,> 100 µM
same,GI50,SK-MEL-28 melanoma,47 µM
same,TGI,SK-MEL-28 melanoma,> 100 µM
same,GI50,OVCAR-8 ovarian,87 µM
same,TGI,OVCAR-8 ovarian,> 100 µM
same,GI50,PC-3 prostate,62.4 µM
same,TGI,PC-3 prostate,> 100 µM
same,GI50,SF-295 CNS,41.4 µM
same,TGI,SF-295 CNS,> 100 µM
same,GI50,SR leukemia,22.9 µM
same,TGI,SR leukemia,> 100 µM
same,GI50,A498 renal,29.5 µM
same,TGI,A498 renal,88.3 µM
same,GI50,KM12 colon,42.3 µM
same,TGI,KM12 colon,> 100 µM
same,GI50,OVCAR-5 ovarian,> 100 µM
same,TGI,OVCAR-5 ovarian,> 100 µM
same,GI50,SW-620 colon,> 100 µM
same,TGI,SW-620 colon,> 100 µM
same,GI50,HT29 colon,32.2 µM
same,TGI,HT29 colon,> 100 µM
same,GI50,UACC-257 melanoma,88.9 µM
same,TGI,UACC-257 melanoma,> 100 µM
same,GI50,NCI-H522 lung,84.3 µM
same,TGI,NCI-H522 lung,> 100 µM
same,GI50,T-47D breast,> 100 µM
same,TGI,T-47D breast,> 100 µM
same,GI50,MCF7 breast,40 µM
same,TGI,MCF7 breast,> 100 µM
same,GI50,OVCAR-4 ovarian,> 100 µM
same,TGI,OVCAR-4 ovarian,> 100 µM
same,GI50,TK-10 renal,18.2 µM
same,TGI,TK-10 renal,> 100 µM
same,GI50,MALME-3M melanoma,23.8 µM
same,TGI,MALME-3M melanoma,> 100 µM
same,GI50,HS 578T breast,46 µM
same,TGI,HS 578T breast,> 100 µM
same,GI50,IGROV1 ovarian,44.4 µM
same,TGI,IGROV1 ovarian,> 100 µM
same,GI50,NCI-H226 lung,> 100 µM
same,TGI,NCI-H226 lung,> 100 µM
same,GI50,COLO 205 colon,61.6 µM
same,TGI,COLO 205 colon,> 100 µM
same,GI50,SN12C renal,> 100 µM
same,TGI,SN12C renal,> 100 µM
same,GI50,HCT-15 colon,89.3 µM
same,TGI,HCT-15 colon,> 100 µM
same,GI50,DU-145 prostate,94.1 µM
same,TGI,DU-145 prostate,> 100 µM
same,GI50,EKVX NSCLC,> 100 µM
same,TGI,EKVX NSCLC,> 100 µM
same,GI50,786-0 renal,> 100 µM
same,TGI,786-0 renal,> 100 µM
same,GI50,SK-MEL-2 melanoma,92.4 µM
same,TGI,SK-MEL-2 melanoma,> 100 µM
same,GI50,LOX IMVI melanoma,35.1 µM
same,TGI,LOX IMVI melanoma,> 100 µM
same,GI50,K-562 leukemia,59.4 µM
same,TGI,K-562 leukemia,> 100 µM
same,GI50,MOLT-4 leukemia,30.9 µM
same,TGI,MOLT-4 leukemia,> 100 µM
same,GI50,CCRF-CEM leukemia,37.9 µM
same,TGI,CCRF-CEM leukemia,> 100 µM
